Measurements reported in patent US4288609A, “Quaternary ammonium derivatives of adamantane with antimicrobic activity” (priority 1976, dated 1981).

Experiments:
Klens. Pneum. ISM = test: M.I.C. in vitro, gram- Klens. Pneum. (Table 1); assay type: cell-based
Procedure: (§1) The method for evaluating the activity in vitro against bacteria, fungi and protozoa consists in introducing calculated quantities of the substance, the activity of which it is desired to test, into culture media already inoculated with a predetermined number of test germs.
(§2) After 24 or 48 hours of incubation at 30° or 37° C., according to the micro-organism being tested, it is possible to evaluate the growth of the same in the culture broth; in this manner the minimum concentration (M.I.C.) which inhibits the growth of the micro-organisms in vitro is determined.
(§3) In table 1 there are recorded the M.I.C. values in γ/ml of the products subject of the present invention, against certain gram+ and gram- bacterial strains, some of which are pathogenic towards human beings.

[1] = system: Trichophyton Mentagrophytes; test: Topical activity upon dermatophytis from Trichophyton in cavies (Table 6); assay type: in vivo, Albino cavies
Procedure: Albino cavies of 250-300 g are infected, after depilation and scarification of a circular area of dorsal skin upon which there are supplied 0.1 ml of a suspension of microconidia of Trichophyton Mentagrophytes from the Pasteur Institute collection, obtained from a culture of 15 days upon Saboureaud agar. 24 Hours after infection topical treatment is started and is continued for two weeks (once per day).
The compounds to be tested are dissolved or suspended at the desired concentration, in a water-alcohol mixture (75/25 v/v) containing 0.75% by weight of carboxymethyl-cellulose (CMC). […] Each single application is carried out using 0.25 ml of the suspension or solution obtained as described above.
Fourteen days after infection the lesions are assessed. Assessment is carried out by attributing index numbers depending upon the seriousness of the lesions formed, as follows:
The substances under examination were tested at concentrations of 5 and 2.5% by weight.

[2] = system: Trichomonas Vaginalis ISM 66/22; test: Speed of sterilising action, Trichomonas Vaginalis (Table 3); assay type: cell-based
Procedure: (§4) The strains, inoculants, culture broths and experimental methods are as already seen for calculating the M.I.C. in vitro. The antimicrobic substances were tested at concentrations of 0.1, 0.25, 0.5 and 1 g/l, the contact times taken into consideration are 0, 1, 2.5, 5, 7.5, 10, 15, 30 and 60 minutes.
(§5) The samples which at the 7th day of incubation still had no growth of micro-organisms which could be observed macroscopically and/or microscopically were considered sterile.
(§6) The results are recorded in Table 3 in terms of sterilization time expressed in minutes.

Diplococcus Pneum. ISM = test: M.I.C. in vitro, gram+ Diplococcus Pneum. (Table 1); assay type: cell-based
Procedure: as §1, §2, §3

Pseudomonas Aeruginosa = test: Antibacterial activity in vivo with topical treatment (Table 5); parameters: species or system female CF1 albino mice; conditions: for animals alive on the 15th day / animals dead on the 15th day: 10 animals; for % survivors: topical, 15th day
Procedure: After their backs have been shaved, female CF1 albino mice weighing 18-22 g are scorched (under ether anaesthetic) for 15 seconds with a pad of brass previously immersed in boiling water (7-8% of the body surface). After 90 minutes there is applied to the scorched area 0.1 ml of a suspension of Pseudomonas Aeruginosa bacteria having 15% transmittance at 650 nm. The bacterial strain in question produces a high incidence of mortality, induced by septicemic diffusion from the point of infection. After 90 minutes, with the aid of a glass rod suitably flattened at one end, the preparation containing a known concentration of the compound under examination is applied locally. The treatment is continued for a total of six days (once per day). On the fifteenth day the percentage of survivors to the tested doses in recorded.
The carrier used for applying the compounds under examination is an aqueous 0.75% solution of carboxymethyl-cellulose. The concentrations of the compounds tested are 2, 1, 0.5 and 0.25% by weight.

[3] = system: Escherichia Coli SKF 12140; test: Speed of sterilising action, Escherichia Coli (Table 3); assay type: cell-based
Procedure: as §4, §5, §6

Staph.Aureus Tour = test: M.I.C. in vitro, gram+ Staph. Aureus (Table 1); assay type: cell-based, Staphylococcus Aureus; conditions: Staphylococcus aureus
Procedure: as §1, §2, §3

Esch. Coli. SKF 12140 = test: M.I.C. in vitro, gram- Esch. Coli (Table 1); assay type: cell-based, Escherichia Coli; conditions: Escherichia coli
Procedure: as §1, §2, §3

[4] = system: Trichophyton Mentagrophytes Ist. Pasteur; test: Speed of sterilising action, Trichophyton Mentagrophytes (Table 3); assay type: cell-based
Procedure: as §4, §5, §6

[5] = system: Candida Albicans SKF 2270; test: Speed of sterilising action, Candida Albicans (Table 3); assay type: cell-based
Procedure: as §4, §5, §6

Proteus Vulc. ATCC 881 = test: M.I.C. in vitro, gram- Proteus Vulc. (Table 1); assay type: cell-based
Procedure: as §1, §2, §3

[6] = Acute oral toxicity in mice (Table 4); conditions: mouse, in vivo, po
Procedure: The substances were administered orally to groups of 10 female mice CF1 of average weight of about 20 grams, in aqueous solution and in such way that the total volume administered would be in each case 1 ml/100 g of weight.

Candida albicans = test: Activity upon vaginal candidiasis in mice (Table 7); assay type: in vivo, female Swiss mice (Charles River CD1); conditions: for no. of animals surviving: 8 animals
Procedure: The treatment groups consist each of 8 female Swiss mice (Charles River CD1) of average weight 20 g. The animals are infected with 0.025 ml of a 24 hour culture of Candida albicans, equal to 10^6 cellules.
0.025 ml of a suspension in lanoline of the compound to be tested, at the desired concentration, are applied locally twice a day for a week, the first treatment being started five hours after infection.
The control group is treated with the lanoline alone in the same way. On the eighth day vaginal washings are carried out with 0.025 ml of sterile physiological solution, and the liquid is sown in Petri dishes containing Bacto Biggy Agon Difco as a selective growing medium for the Candida.
After 48 hours of incubation of the dishes at 30° C. a count is taken of the colonies which have grown. Assessment of the activity is quantized using the indices listed here below:
The results are expressed as percentages of the average index of seriousness of the infection A.D.I. (Average Degree of Infection) in the animals treated with respect to the animals in the control group.
The substances under examination were tested at concentrations of 5 and 3% by weight.

[7] = system: Streptococ. Henclyt. 0203; test: M.I.C. in vitro, gram+ Streptococ. Henclyt. (Table 1); assay type: cell-based
Procedure: as §1, §2, §3

Pseudom.Aer. ATCC 1014 = test: M.I.C. in vitro, gram- Pseudom. Aer. (Table 1); assay type: cell-based, Pseudomonas Aeruginosa; conditions: Pseudomonas aeruginosa
Procedure: as §1, §2, §3

[8] = system: Staphylococcus Aureus Tour; test: Speed of sterilising action, Staphylococcus Aureus (Table 3); assay type: cell-based
Procedure: as §4, §5, §6

## CCCCCCCCCCCCCCCC[n+]1ccccc1 [Cetyl pyridine chloride, cetyl pyridine chloride, reference compound]
Klens. Pneum. ISM; +10% serum
  MIC: > 100 µg/mL
Klens. Pneum. ISM; without serum
  MIC: 5 µg/mL
[1]; 2.5% by weight
  A.D.I. (% of control group): 81.27%
  healing % (100-A.D.I. %): 18.73%
[1]; 5% by weight
  A.D.I. (% of control group): 49.81%
  healing % (100-A.D.I. %): 50.19%
[1]; 5% by weight, average index
  evaluation of seriousness of infection (A.D.I.): 1.33
[2]; 0.1 g/l
  sterilization time: 5 min
[2]; 0.25 g/l
  sterilization time: 2.5 min
[2]; 0.5 g/l
  sterilization time: 1 min
[2]; 1 g/l
  sterilization time: 1 min
Diplococcus Pneum. ISM; +10% serum
  MIC: 10 µg/mL
Diplococcus Pneum. ISM; without serum
  MIC: 1 µg/mL
Pseudomonas Aeruginosa; 0.25% by weight
  animals alive on the 15th day: 1
  animals dead on the 15th day: 9
  % survivors: 10%
Pseudomonas Aeruginosa; 0.5% by weight
  animals alive on the 15th day: 3
  animals dead on the 15th day: 7
  % survivors: 30%
Pseudomonas Aeruginosa; 1% by weight
  animals alive on the 15th day: 2
  animals dead on the 15th day: 8
  % survivors: 20%
Pseudomonas Aeruginosa; 2% by weight
  animals alive on the 15th day: 4
  animals dead on the 15th day: 6
  % survivors: 40%
[3]; 0.1 g/l
  sterilization time: > 60 min
[3]; 0.25 g/l
  sterilization time: > 60 min
[3]; 0.5 g/l
  sterilization time: > 60 min
[3]; 1 g/l
  sterilization time: > 60 min
Staph.Aureus Tour; +10% serum
  MIC: 10 µg/mL
Staph.Aureus Tour; without serum
  MIC: 0.1 µg/mL
Esch. Coli. SKF 12140; +10% serum
  MIC: > 100 µg/mL
Esch. Coli. SKF 12140; without serum
  MIC: 5 µg/mL
[4]; 0.1 g/l
  sterilization time: 60 min
[4]; 0.25 g/l
  sterilization time: 60 min
[4]; 0.5 g/l
  sterilization time: 30 min
[4]; 1 g/l
  sterilization time: 5 min
[5]; 0.1 g/l
  sterilization time: 60 min
[5]; 0.25 g/l
  sterilization time: 10 min
[5]; 0.5 g/l
  sterilization time: 10 min
[5]; 1 g/l
  sterilization time: 10 min
Proteus Vulc. ATCC 881; +10% serum
  MIC: > 100 µg/mL
Proteus Vulc. ATCC 881; without serum
  MIC: 20 µg/mL
[6]
  LD50 at 336 h: 275 mg/kg
Candida albicans; 3% by weight
  % of healing (100-A.D.I. %): 15.97%
  A.D.I. (compared with controls): 84.03%
  no. of animals surviving: 6
Candida albicans; 5% by weight
  no. of animals surviving: 2
Candida albicans; highest dose, before the end of the experiment
  death of treated animals: 75%
Candida albicans; lower dose
  mortality: 25%
[7]; +10% serum
  MIC: 5 µg/mL
[7]; without serum
  MIC: 0.5 µg/mL
Pseudom.Aer. ATCC 1014; ATCC1014, +10% serum
  MIC: > 200 µg/mL
Pseudom.Aer. ATCC 1014; ATCC1014, without serum
  MIC: 200 µg/mL
[8]; 0.1 g/l
  sterilization time: 7.5 min
[8]; 0.25 g/l
  sterilization time: 2.5 min
[8]; 0.5 g/l
  sterilization time: 1 min
[8]; 1 g/l
  sterilization time: 1 min
